The values below come from patent US20220326218A1, “COMPOSITION AND METHOD FOR INHIBITING BORC COMPLEX TO TREAT CANCERS WITH NF1 DEFICIENCY AND DYSREGULATED RAS SIGNALING” (THE TRUSTEES OF DARTMOUTH COLLEGE, priority 2019, published 2022).

Experiment [1] concerns U251-MG cells. Put plainly: alamarBlue assay, U251-MG. Type of experiment: cell-based, human. The following applies: up to 3 days, 20 μM to 0.039 μM. Here is the method: Cells were plated at 5,000 cells/well in 96-well plates and allowed to adhere overnight. […] Cells were incubated for 72 h. 3 h prior to end of incubation, alamarBlue (Invitrogen) was added to a final concentration of 5% v/v. Fluorescence was read using a Spectramax M2 at an excitation of 544 nm and an emission of 590 nm, and fluorescence was normalized to DMSO. Each experiment contains 4 technical replicates.

Experiment [2] concerns the target T1, proteasomal active sites (Homo sapiens, UniProt P28072+P28074+Q99436).
T1 construct: endogenous in cells; host or cells: U87-MG
As to the kind of experiment: MV-151 proteasome active site inhibition assay. To be noted: U87-MG; Y102 2 μM 24 h; positive control 1 μM Bortezomib and 10 μM MG-132 2 h. Format: cell-based. Here is the method: U87-MG cells were plated at 500,000 cells/well in 6-well plates and allowed to adhere overnight (Falcon). Medium was removed and replaced with fresh medium containing Y102 or vehicle DMSO and treated for 24 h. As a positive control, one well was treated for 2 h with 1 μM Bz/10 μM MG-132.
Cells were collected after treatment by washing with PBS, harvested with trypsin plus agitation to detach cells, spun down in a centrifuge, and resuspended in PBS to wash. Cells were transferred to 1.5 mL microcentrifuge tubes, pelleted, and resuspended in 20 μL digitonin lysis buffer (50 mM Tris HCl pH 7.5, 250 mM sucrose, 2 mM EDTA, 1 mM ATP, 1 mM DTT, and 0.05% digitonin). Cells were mixed by pipetting, incubated on ice for 20 minutes, and the lysate was cleared by centrifugation. Protein concentrations were determined using a Bradford protein assay (Bio-Rad). 10 μg of protein lysate was incubated for 20 minutes with 20 μM MV-151 in a 37° C. water bath. 4× loading dye was added to the samples and proteins were separated by sodium dodecyl sulfate-polyacrylamide gel electrophoresis (SDS-PAGE) on a 4-15% polyacrylamide gradient gel (Bio-Rad). Gel was imaged on a Typhoon scanner at an excitation of 532 nm and an emission of 560 nm to detect MV-151 fluorescence. Following imaging, proteins were transferred to nitrocellulose. The blot was probed for α-Tubulin as a loading control. […]

In experiment [3] the test system is LC3-II. As to the kind of experiment: Western immunoblotting of autophagy marker LC3-I/II. The following applies: U87-MG, 12 h treatment +/- 12 h HCQ co-treatment, total 24 h. Type of experiment: cell-based, human. Here is the method: (§1) U87-MG cells were plated at 500,000 cells/well in 6-well plates and allowed to adhere overnight (Falcon). Medium was removed and replaced with fresh medium containing drugs or compounds for the indicated timepoints. Cells were collected after treatment by washing with PBS, harvested with trypsin plus agitation to detach cells, pelleted in a centrifuge and resuspended in PBS to wash. Cells were transferred to 1.5 mL microcentrifuge tubes, pelleted, and resuspended in RIPA lysis buffer (50 mM Tris pH 8.0, 150 mM NaCl, 1% nonidet P40, 0.5% sodium deoxycholate, and 0.05% SDS) containing 1 mM NaVO4, 1 mM NaF, 1 mM phenylmethylsulfonyl fluoride, 0.1 μg/mL antipain, 1 μM aprotinin, 100 μM benzamidine HCl, 0.1 μg/mL leupeptin, 0.1 μg/mL pepstatin, and 0.1 μg/mL soybean trypsin inhibitor. Protein was quantified using a BCA assay kit (Pierce). 50 μg of protein was prepared in 1× Laemmli sample buffer (50 mM Tris pH 6.8, 0.02% w/v bromophenol blue, 2% w/v SDS, 10% v/v glycerol, 1% v/v beta-mercaptoethanol, 12.5 mM EDTA) and separated by SDS-PAGE on a 4-15% polyacrylamide gradient gel (Bio-Rad). […]
(In western blotting, separated proteins are transferred to a membrane and probed.)

For experiment [4], the system named is PARP. Put plainly: Western immunoblotting for PARP. Type of experiment: cell-based, human. The following applies: U87-MG. Here is the method: as §1
Experiment [5] relates to erg6Δira2Δ yeast. As to the kind of experiment: Yeast dose response curves, erg6Δira2Δ strain. Type of experiment: cell-based, Saccharomyces cerevisiae. To be noted: 30° C., 18 h, 100 μM to 0.039 μM, normalized to DMSO. Here is the method: S. cerevisiae strains were plated at an OD600 of 0.05 in 96-well plates (Falcon) and treated with SC complete containing compound starting at 100 μM, followed by 2-fold serial dilutions to generate a 10-point range of concentrations normalized with DMSO; one row was treated with DMSO as a control. Yeast were incubated for 18 h. To process, the optical density was read using a Spectramax M2 (Molecular Devices) at a wavelength of 600 nm and normalized to DMSO. Each experiment was repeated 2-3 times with 4 technical replicates per experiment.
A high-throughput screen in Saccharomyces cerevisiae lacking a yeast homologue of NF1, IRA2 (ira2Δ) was developed and carried out to identify tool compounds that elicited synthetic lethality with NF1 loss (15). ira2Δ yeast have increased RAS-GTP, which results in increased MAPK and PKA signaling analogous to the pathways that are activated in NF1-deficient Schwann cells (17). […]
More than 5,100 structurally diverse compounds selected from and representative of a >340,000-compound library were screened. […] To determine whether Y102 was also effective in human tumor cells, the efficacy of Y102 was evaluated in two NF1-deficient human cancer cell line models of glioblastoma, U87-MG and U251-MG, and an NF1-deficient Neurofibromatosis type 1-associated MPNST cell line sNF96.2. […]

For the molecule `Cn1cnnc1S/C=C/C(=O)c1ccc(F)cc1` [Y102], in experiment [1], the “sensitivity of NF1-deficient cell line to treatment” value is given as “sensitive”. In experiment [2], the “inhibition of the proteasomal subunits (MV-151 competitive binding)” value is “not”. Besides, the “LC3-II accumulation (western immunoblotting)” value in experiment [3] is reported as “did not result in LC3-II accumulation”. Also, in experiment [4], the “PARP western immunoblotting as check of absent caspase-3-mediated apoptosis” value is listed as “confirmed”. In experiment [5], the “effect on growth of erg6Δira2Δ yeast (OD600)” value is reported as “inhibitory effect”.
